Calls of active or inactive are those of the source. No cut-off for these calls is given here.
How the values were obtained:
CCRF S-180 [1] = assay: In vivo antitumor activity against mouse S180 cells implanted in mouse assessed as cell growth at 1.25 ug/mouse for 10 days relative to control; format: functional
CCRF S-180 [2] = assay: In vivo antitumor activity against mouse S180 cells implanted in mouse assessed as cell growth at 10 ug/mouse for 10 days relative to control; format: functional
CCRF S-180 [3] = assay: In vivo antitumor activity against mouse S180 cells implanted in mouse after 10 days; format: functional, organism-based
CCRF S-180 [4] = assay: In vivo antitumor activity against mouse S180 cells implanted in mouse assessed as cell growth at 2.5 ug/mouse for 10 days relative to control; format: functional
CCRF S-180 [5] = assay: In vivo antitumor activity against mouse S180 cells implanted in mouse assessed as cell growth at 0.625 ug/mouse for 10 days relative to control; format: functional
CCRF S-180 [6] = assay: In vivo antitumor activity against mouse S180 cells implanted in mouse assessed as cell growth at 5 ug/mouse for 10 days relative to control; format: functional
CCRF S-180 [7] = assay: In vivo antitumor activity against mouse S180 cells implanted in mouse assessed as cell growth at 20 ug/mouse for 10 days relative to control; format: functional
CCRF S-180 [8] = assay: In vivo antitumor activity against mouse S180 cells implanted in mouse assessed as cell growth at 60 ug/mouse for 10 days relative to control; format: functional
CCRF S-180 [9] = assay: Antitumor activity against mouse S180 cells implanted in mouse in presence of cyclophosphamide administered 24 hrs prior to implantation; format: functional, cell-based
L1210 = assay: Cytotoxicity against mouse L1210 cells; format: functional, cell-based
CCRF S-180 [10] = assay: Cytotoxicity against mouse S180 cells; format: functional, cell-based
CCRF S-180 [11] = assay: In vivo antitumor activity against mouse S180 cells implanted in mouse assessed as cell growth at 40 ug/mouse for 10 days relative to control; format: functional
KB = assay: Cytotoxicity against human KB cells; format: functional, cell-based

| SMILES | T/C (CCRF S-180 [1]) [%] | T/C (CCRF S-180 [2]) [%] | IC50 (CCRF S-180 [3]) | T/C (CCRF S-180 [4]) [%] | T/C (CCRF S-180 [5]) [%] | T/C (CCRF S-180 [6]) [%] | T/C (CCRF S-180 [7]) [%] | T/C (CCRF S-180 [8]) [%] | Activity (CCRF S-180 [9]) | Activity (L1210) | Activity (CCRF S-180 [10]) | T/C (CCRF S-180 [11]) [%] | Activity (KB) |
| --- | --- | --- | --- | --- | --- | --- | --- | --- | --- | --- | --- | --- | --- |
| O=C(O)CC1C(=O)Nc2ccccc21 (stereo not given) | 16 | 0 | <= 1 ug | 0 | 36 | 0 | 0 |  |  |  |  |  |  |
| O=C1CC(C(=O)O)c2ccccc2N1 (racemic) | 30 | 0 | <= 1 ug | 0 | 62 | 0 | 0 |  |  |  |  |  |  |
| COc1cc(C2c3cc(O[C@@H]4O[C@H](COC(=O)CC5C(=O)Nc6ccccc65)[C@@H](O)[C@H](O)[C@H]4O)c(O)cc3C3C(=O)O[C@H]4[C@H](O)[C@@H](COC(=O)C32)O[C@@]4(CO)O[C@H]2O[C@H](CO)[C@@H](O)[C@H](O)[C@H]2O)ccc1O (stereo not given in full) [SECALOSDIE A/B] |  | 24 | 5 µg | 70 |  | 45 | 17 | 0 | inactive | inactive | inactive | 2 | inactive |
